{
  "source": "patent US20070259087A1",
  "about": "“Antimicrobial Peptides” (Novozymes A/S, priority 2003, published 2007)",
  "key": {"E. coli TOP10": {"test_system": "E. coli TOP10", "format": "cell-based", "method": "A range of synthetic antimicrobial polypeptides were expressed in E. coli TOP10 (Invitrogen) using arabinose as inducer, as disclosed in Example 1 of International patent application WO 00/73433 (with minor modifications). […] Briefly, fresh overnight cultures grown in RM medium containing 0.2% glucose and ampicillin (100 μg/ml) were diluted 300-fold into 150 microliter of RM containing 0.2% glycerol and ampicillin (100 μg/ml) and different concentrations of arabinose (0, 0.01% or 0.1%) in a microtiter plate and incubated at 37 degrees Celsius with vigorous shaking. The growth curve was monitored by measuring OD450 using a Bioscreen C Microbiology reader (Thermo Electron Corporation) at intervals of 30 minutes for 14 hours (see Invitrogen protocol of the pBAD/gill A, B and C vectors catalogue nos. V450-01 for buffer and media composition). The percentage of growth inhibition was calculated as the end point OD measurement of each sample divided by the end point OD measurement obtained from cells containing the control vector and multiplied by 100. The formula is the following: [formula] where “blank OD” corresponds to the OD of an empty well."}, "[1]": {"test_system": "Pseudomonas aeroginosa (ATCC 27853)", "from_the_text": "The selected test organism was Pseudomonas aeroginosa (ATCC 27853)."}, "[2]": {"test_system": "Pseudomonas aeroginosa (ATCC 27853)", "test": "Killing kinetics in MHB (viable cells, CFU/ml)", "format": "cell-based", "conditions": "4×MIC concentration", "method": "The rate of killing of Gen2 was determined in MHB using Pseudomonas aeroginosa (ATCC 27853) as the test organism. The bacteria were incubated with Gen2 (at 4×MIC concentration). At different time-points, several dilutions of the preparation were plated and an estimate of viable cells was determined (CFU/ml). The results in Table 2 indicate that Gen2 rapidly kills the bacteria, with a near 3-log reduction in CFU within 30 minutes."}, "Eschericia coli": {"test_system": "Eschericia coli", "test": "Antimicrobial activity by radial diffusion assay (MEC)", "format": "cell-based", "method": "(§1) A modified version of a previously published protocol has been applied in the detection of antimicrobial activity (Lehrer et al., (1991) Ultra sensitive assays for endogenous antimicrobial polypeptides J Immunol Methods 137: 167-173). Target bacteria (10^6 colony forming units (CFU)) were added to 10 ml of underlay agarose (1% low electro-endosmosis agarose, 0.03% Trypticase soy broth, 10 mM sodium phosphate, pH 7.4, 37 degrees Celsius). Suspension was solidified on an INTEGRID Petri Dish (Becton Dickinson Labware). A 3 mm Gel Puncher was used to make holes in the underlay agarose (Amersham Pharmacia Biotech, Sweden). Samples were added to the holes and incubated at 37 degrees Celsius, 3 hours. An overlay was poured on top and the plate was incubated overnight (LB media, 7.5% Agar). Antimicrobial activity was seen as bacterial clearing zones around the wells. Living cells was counterstained by adding 10 ml, 0.2 mM MTT (3-(4,5-Dimethylthiazol-2-yl)-2,5-diphenyltetrazolium bromide Thiazolyl blue)."}, "Bacillus subtilis": {"test_system": "Bacillus subtilis", "test": "Antimicrobial activity by radial diffusion assay (MEC)", "format": "cell-based", "method": "as §1"}, "[3]": {"conditions": "0.01% arabinose, end point OD450 after 14 hours, 37 degrees Celsius"}, "[4]": {"conditions": "0.1% arabinose, end point OD450 after 14 hours, 37 degrees Celsius"}},
  "note": "Read-outs that look alike come from different tables or passages of the source. Where no end group is shown, it is not given here.",
  "data": [
    {"sequence": "GLLSKLKKAAKKALKHVL [Gen2, GLLSKLKKAAKKALKHVL]", "values": [
      {"measurement": "Growth inhibition using 0.01% arabinose (%)", "setting": "E. coli TOP10; TOP10, 14 h", "result": 51, "unit": "%"},
      {"measurement": "Growth inhibition using 0.1% arabinose (%)", "setting": "E. coli TOP10; TOP10, 14 h", "result": 48, "unit": "%"},
      {"measurement": "MIC", "setting": "[1]; ATCC 27853", "result": 15, "unit": "µg/mL"},
      {"measurement": "MIC", "setting": "[1]; ATCC 27853, pH 5.5", "result": 16, "unit": "µg/mL"},
      {"measurement": "MIC", "setting": "[1]; ATCC 27853, pH 6.5", "result": 16, "unit": "µg/mL"},
      {"measurement": "viable cells", "setting": "[2]; 0 hours", "result": 100.000, "unit": "CFU/ml"},
      {"measurement": "viable cells", "setting": "[2]; 0.5 hours", "result": 115, "unit": "CFU/ml"},
      {"measurement": "viable cells", "setting": "[2]; 1.5 hours", "result": 60, "unit": "CFU/ml"},
      {"measurement": "viable cells", "setting": "[2]; 24 hours", "result": "<20", "unit": "CFU/ml"},
      {"measurement": "reduction in CFU", "setting": "[2]; within 30 minutes", "result": "~3", "unit": "log"},
      {"measurement": "antimicrobial activity (MEC)", "setting": "Eschericia coli", "result": "< 64", "unit": "µg/mL"},
      {"measurement": "antimicrobial activity (MEC)", "setting": "Bacillus subtilis", "result": "< 64", "unit": "µg/mL"}
    ]},
    {"sequence": "GMLSKLGITIKIAVKHIR (Synthetic antimicrobial peptide) [SEQ ID NO:6]", "values": [
      {"measurement": "Growth inhibition using 0.01% arabinose (%)", "setting": "E. coli TOP10; [3]", "result": 98, "unit": "%"},
      {"measurement": "Growth inhibition using 0.1% arabinose (%)", "setting": "E. coli TOP10; [4]", "result": 100, "unit": "%"}
    ]},
    {"sequence": "GWFNKLKTKIKKTLKHVL (Synthetic antimicrobial peptide) [SEQ ID NO:11]", "values": [
      {"measurement": "Growth inhibition using 0.01% arabinose (%)", "setting": "E. coli TOP10; [3]", "result": 72, "unit": "%"},
      {"measurement": "Growth inhibition using 0.1% arabinose (%)", "setting": "E. coli TOP10; [4]", "result": 90, "unit": "%"}
    ]},
    {"sequence": "GWFSKLKKTAKKLLQRVL (Synthetic antimicrobial peptide) [SEQ ID NO:7]", "values": [
      {"measurement": "Growth inhibition using 0.01% arabinose (%)", "setting": "E. coli TOP10; [3]", "result": 76, "unit": "%"},
      {"measurement": "Growth inhibition using 0.1% arabinose (%)", "setting": "E. coli TOP10; [4]", "result": 82, "unit": "%"}
    ]},
    {"sequence": "GWLKILEKAAKITVKNVL (Synthetic antimicrobial peptide) [SEQ ID NO:36]", "values": [
      {"measurement": "Growth inhibition using 0.01% arabinose (%)", "setting": "E. coli TOP10; [3]", "result": 98, "unit": "%"},
      {"measurement": "Growth inhibition using 0.1% arabinose (%)", "setting": "E. coli TOP10; [4]", "result": 97, "unit": "%"}
    ]},
    {"sequence": "GWLRKIGKAVKKVVKRVL (Synthetic antimicrobial peptide) [SEQ ID NO:34]", "values": [
      {"measurement": "Growth inhibition using 0.01% arabinose (%)", "setting": "E. coli TOP10; [3]", "result": 90, "unit": "%"},
      {"measurement": "Growth inhibition using 0.1% arabinose (%)", "setting": "E. coli TOP10; [4]", "result": 99, "unit": "%"}
    ]}
  ]
}
